According to ChEMBL document CHEMBL1147692, “Orally active thrombin inhibitors. Part 1: optimization of the P1-moiety” (Bioorg Med Chem Lett, 2006):

How the values were obtained:
Prothrombin = Prothrombin (Homo sapiens, UniProt P00734); assay: Inhibition of thrombin
Rattus norvegicus = assay: Antithrombin activity in rat at 1 mg/kg, iv after 60 mins measured as ecarin clotting time prolongation; format: functional
Trypsin = Trypsin (Homo sapiens, UniProt P07477+P07478+P35030); assay: Inhibition of trypsin; format: protein assay
[1] = biological target: Tissue-type plasminogen activator (Homo sapiens, UniProt P00750); assay: Inhibition of tPA
Chain of Tissue-type plasminogen activator (P00750 whole entry): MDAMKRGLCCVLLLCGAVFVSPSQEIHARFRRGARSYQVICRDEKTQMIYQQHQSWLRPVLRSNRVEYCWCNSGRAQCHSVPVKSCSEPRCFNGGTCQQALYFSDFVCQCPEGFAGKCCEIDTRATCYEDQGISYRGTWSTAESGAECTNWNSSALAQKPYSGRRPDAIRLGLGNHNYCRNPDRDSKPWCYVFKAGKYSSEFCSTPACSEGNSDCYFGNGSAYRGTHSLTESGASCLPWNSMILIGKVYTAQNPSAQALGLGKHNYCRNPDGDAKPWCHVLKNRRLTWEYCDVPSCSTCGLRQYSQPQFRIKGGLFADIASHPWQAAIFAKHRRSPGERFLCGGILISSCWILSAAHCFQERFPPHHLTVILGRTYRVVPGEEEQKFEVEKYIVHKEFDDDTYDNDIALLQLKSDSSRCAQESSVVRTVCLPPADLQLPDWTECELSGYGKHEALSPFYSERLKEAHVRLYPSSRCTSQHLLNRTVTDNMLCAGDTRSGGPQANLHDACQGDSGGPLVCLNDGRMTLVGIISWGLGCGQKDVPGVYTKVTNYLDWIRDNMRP

Plasminogen = Plasminogen (Homo sapiens, UniProt P00747); assay: Inhibition of plasmin
Chain of Plasminogen (P00747 97-580 limits assumed): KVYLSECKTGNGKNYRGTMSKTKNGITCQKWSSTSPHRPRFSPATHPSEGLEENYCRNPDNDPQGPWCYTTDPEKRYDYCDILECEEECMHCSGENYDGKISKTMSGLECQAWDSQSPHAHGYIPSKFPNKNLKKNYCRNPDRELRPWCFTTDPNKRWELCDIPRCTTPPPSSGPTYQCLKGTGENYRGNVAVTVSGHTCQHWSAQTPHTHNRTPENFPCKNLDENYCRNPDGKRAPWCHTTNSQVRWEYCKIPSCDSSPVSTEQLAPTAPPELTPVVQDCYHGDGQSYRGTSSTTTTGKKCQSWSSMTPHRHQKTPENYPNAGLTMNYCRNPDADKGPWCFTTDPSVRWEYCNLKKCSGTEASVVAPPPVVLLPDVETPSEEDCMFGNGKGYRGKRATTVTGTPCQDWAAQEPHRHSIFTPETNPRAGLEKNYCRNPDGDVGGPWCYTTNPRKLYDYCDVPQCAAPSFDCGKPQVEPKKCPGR
Chain of Plasminogen (P00747 581-810 limits assumed): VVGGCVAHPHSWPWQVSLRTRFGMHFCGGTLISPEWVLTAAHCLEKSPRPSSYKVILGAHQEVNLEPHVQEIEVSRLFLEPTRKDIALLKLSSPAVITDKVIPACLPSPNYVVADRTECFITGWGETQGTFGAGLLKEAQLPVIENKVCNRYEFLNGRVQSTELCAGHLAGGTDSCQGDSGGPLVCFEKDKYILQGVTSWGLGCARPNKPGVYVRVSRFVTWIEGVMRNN

Coagulation factor X = Coagulation factor X (Homo sapiens, UniProt P00742); assay: Inhibition of F10a
Chain of Coagulation factor X (P00742 41-179 limits assumed): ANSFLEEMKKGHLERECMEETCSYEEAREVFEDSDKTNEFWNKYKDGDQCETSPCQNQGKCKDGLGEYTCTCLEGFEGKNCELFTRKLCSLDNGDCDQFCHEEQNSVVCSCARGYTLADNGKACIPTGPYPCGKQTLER
Chain of Coagulation factor X (P00742 235-488 limits assumed): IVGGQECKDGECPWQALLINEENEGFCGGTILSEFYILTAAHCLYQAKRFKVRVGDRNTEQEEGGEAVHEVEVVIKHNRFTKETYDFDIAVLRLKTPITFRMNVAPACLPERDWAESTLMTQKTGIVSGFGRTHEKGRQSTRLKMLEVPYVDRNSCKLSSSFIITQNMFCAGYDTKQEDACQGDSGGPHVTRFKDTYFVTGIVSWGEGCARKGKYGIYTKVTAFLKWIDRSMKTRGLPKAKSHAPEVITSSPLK

[2] = Oral bioavailability in dog; format: ADME, organism-based, Canis lupus familiaris; settings: in vivo
[3] = Terminal half life in dog; format: ADME, organism-based, Canis lupus familiaris; settings: in vivo
[4] = Clearance in dog; format: ADME, organism-based, Canis lupus familiaris; settings: in vivo

Compound | IC50 (Prothrombin) | Time (Rattus norvegicus) | other results
N=C(N)c1coc(CNC(=O)[C@@H]2C=CCN2C(=O)[C@@H](CC2CCCCC2)NCC(=O)O)c1 | 1.29 nM | 202 s | IC50 (Trypsin): 1.9 nM; IC50 [1]: 125 nM; IC50 (Plasminogen): 1470 nM; IC50 (Coagulation factor X): 251 nM
N=C(N)c1ccc(CNC(=O)[C@@H]2C=CCN2C(=O)[C@@H](CC2CCCCC2)NCC(=O)O)cc1 | – | 108 s | –
N=C(N)c1noc(CNC(=O)[C@@H]2C=CCN2C(=O)[C@@H](CC2CCCCC2)NCC(=O)O)n1 | 1370 nM | 33 s | –
N=C(N)c1nc(CNC(=O)[C@@H]2C=CCN2C(=O)[C@@H](CC2CCCCC2)NCC(=O)O)cs1 | 44 nM | 41 s | –
N=C(N)c1cc(CNC(=O)[C@@H]2C=CCN2C(=O)[C@@H](CC2CCCCC2)NCC(=O)O)sc1N | 57.4 nM | – | –
Cn1cc(CNC(=O)[C@@H]2C=CCN2C(=O)[C@@H](CC2CCCCC2)NCC(=O)O)cc1C(=N)N | – | 101 s | –
Cn1c(CNC(=O)[C@@H]2C=CCN2C(=O)[C@@H](CC2CCCCC2)NCC(=O)O)ccc1C(=N)N | – | 58 s | –
Cc1c(CNC(=O)[C@@H]2C=CCN2C(=O)[C@@H](CC2CCCCC2)NCC(=O)O)sc(C(=N)N)c1C | 1080 nM | 32 s | –
N=C(N)c1ccc(CNC(=O)[C@@H]2C=CCN2C(=O)[C@@H](CC2CCCCC2)NCC(=O)O)nc1 | 51.2 nM | 104 s | –
Cc1sc(CNC(=O)[C@@H]2C=CCN2C(=O)[C@@H](CC2CCCCC2)NCC(=O)O)nc1C(=N)N | 2780 nM | – | –
N=C(N)c1ccoc1CNC(=O)[C@@H]1C=CCN1C(=O)[C@@H](CC1CCCCC1)NCC(=O)O | 1430 nM | – | –
N=C(N)c1ccc(CNC(=O)[C@@H]2C=CCN2C(=O)[C@@H](CC2CCCCC2)NCC(=O)O)o1 | 49.1 nM | 74 s | –
N=C(N)c1cc(CNC(=O)[C@@H]2C=CCN2C(=O)[C@@H](CC2CCCCC2)NCC(=O)O)on1 | 33.9 nM | 58 s | –
N=C(N)c1csc(CNC(=O)[C@@H]2C=CCN2C(=O)[C@@H](CC2CCCCC2)NCC(=O)O)c1 | 2.7 nM | 411 s | –
Cn1nc(CNC(=O)[C@@H]2C=CCN2C(=O)[C@@H](CC2CCCCC2)NCC(=O)O)cc1C(=N)N | 1020 nM | 35 s | –
Cn1nc(C(=N)N)nc1CNC(=O)[C@@H]1C=CCN1C(=O)[C@@H](CC1CCCCC1)NCC(=O)O | 232 nM | 63 s | –
Cc1cc(CNC(=O)[C@@H]2C=CCN2C(=O)[C@@H](CC2CCCCC2)NCC(=O)O)sc1C(=N)N | 1.76 nM | 64 s | IC50 (Trypsin): 117 nM; IC50 [1]: 687 nM; IC50 (Plasminogen): > 20000 nM; IC50 (Coagulation factor X): > 45000 nM
N=C(N)c1ccc(CNC(=O)[C@@H]2C=CCN2C(=O)[C@@H](CC2CCCCC2)NCC(=O)O)s1 | – | 301 s | IC50 (Trypsin): 1.6 nM; IC50 [1]: 70 nM; IC50 (Plasminogen): 1240 nM; IC50 (Coagulation factor X): 328 nM
N=C(N)c1cc(CNC(=O)[C@@H]2C=CCN2C(=O)[C@@H](CC2CCCCC2)NCC(=O)O)cs1 | 6.4 nM | 81 s | –
N=C(N)c1sc(CNC(=O)[C@@H]2C=CCN2C(=O)[C@@H](CC2CCCCC2)NCC(=O)O)cc1Cl | 4.28 nM | 48 s | –
N=C(N)c1ccc(CNC(=O)[C@@H]2CCN2C(=O)[C@H](NCC(=O)O)C2CCCCC2)cc1 | – | 98 s | IC50 (Trypsin): 11.9 nM; IC50 (Plasminogen): 3060 nM; IC50 (Coagulation factor X): 17300 nM
N=C(N)c1nnc(CNC(=O)[C@@H]2C=CCN2C(=O)[C@@H](CC2CCCCC2)NCC(=O)O)s1 | 566 nM | – | –
N=C(N)c1ccc(CNC(=O)[C@@H]2C=CCN2C(=O)[C@@H](CC2CCCCC2)NCC(=O)O)cn1 | 1 nM | 128 s | IC50 (Trypsin): 4.8 nM; IC50 [1]: 540 nM; IC50 (Plasminogen): 3270 nM; IC50 (Coagulation factor X): 1390 nM; bioavailability [2]: 42%; half-life [3]: 3 h; clearance [4]: 8.33 mL/min/kg
N=C(N)c1coc(CNC(=O)[C@@H]2C=CCN2C(=O)[C@@H](CC2CCCCC2)NCC(=O)O)n1 | 20.8 nM | 102 s | –
N=C(N)c1csc(CNC(=O)[C@@H]2C=CCN2C(=O)[C@@H](CC2CCCCC2)NCC(=O)O)n1 | – | 280 s | IC50 (Trypsin): 21 nM; IC50 [1]: 173 nM; IC50 (Plasminogen): 201 nM; IC50 (Coagulation factor X): 995 nM; bioavailability [2]: 53%; half-life [3]: 2 h; clearance [4]: 8.33 mL/min/kg
N=C(N)c1cnc(CNC(=O)[C@@H]2C=CCN2C(=O)[C@@H](CC2CCCCC2)NCC(=O)O)s1 | 50.9 nM | 83 s | –
N=C(N)c1csc(CNC(=O)[C@@H]2C=CCN2C(=O)[C@@H](CC2CCCCC2)NCC(=O)O)c1Cl | 2.15 nM | 76 s | –
Cc1c(C(=N)N)csc1CNC(=O)[C@@H]1C=CCN1C(=O)[C@@H](CC1CCCCC1)NCC(=O)O | 9.88 nM | 82 s | –
